Data published in patent publication US9289429B2, “Compounds and methods for inhibiting phosphate transport” (Ardelyx, Inc., priority 2010, dated 2016).

How the values were obtained:
human NaP2b (SLC34A2) = biological target: T1, human NaP2b (SLC34A2) (Homo sapiens, UniProt O95436); experiment: NaP2b-mediated Pi transport (33P uptake) in transfected HEK293 cells, human transporter; type: cell-based; details: HEK293 cells transfected with human NaP2b (Thr inserted after residue 37, N39D), 33P phosphate uptake, 100 uM KH2PO4; read-out: pIC50 range for human Nap2b (converted)
T1 construct: host or cells: HEK293
T1 sequence (O95436 1-690): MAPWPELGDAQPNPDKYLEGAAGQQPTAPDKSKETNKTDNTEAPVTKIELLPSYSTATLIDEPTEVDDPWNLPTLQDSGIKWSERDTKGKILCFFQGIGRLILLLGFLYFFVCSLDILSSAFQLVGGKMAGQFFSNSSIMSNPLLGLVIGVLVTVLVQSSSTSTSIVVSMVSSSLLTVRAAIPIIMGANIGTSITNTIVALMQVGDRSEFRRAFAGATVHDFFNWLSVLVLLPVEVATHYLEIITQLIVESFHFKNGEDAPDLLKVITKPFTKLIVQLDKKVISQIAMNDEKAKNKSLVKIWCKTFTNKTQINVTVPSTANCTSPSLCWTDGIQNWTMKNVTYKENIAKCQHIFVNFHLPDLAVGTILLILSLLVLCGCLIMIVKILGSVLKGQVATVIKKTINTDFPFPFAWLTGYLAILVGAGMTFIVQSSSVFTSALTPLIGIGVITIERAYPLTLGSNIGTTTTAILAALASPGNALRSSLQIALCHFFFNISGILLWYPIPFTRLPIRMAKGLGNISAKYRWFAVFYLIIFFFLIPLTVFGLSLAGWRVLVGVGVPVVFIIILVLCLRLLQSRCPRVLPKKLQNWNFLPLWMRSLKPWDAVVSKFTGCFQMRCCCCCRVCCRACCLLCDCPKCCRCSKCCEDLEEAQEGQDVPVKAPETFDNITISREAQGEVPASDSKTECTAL
Procedure: (§1) HEK293 cells were obtained from the American Type Culture collection and propagated per their instructions. Expression clones for rat and human NaP2b (SLC34A2) were obtained from Open Biosystems (Catalog numbers MRN1768-9510282, and MHS1010-99823026, respectively). The sequence of the human protein was mutated to insert a threonine after residue 37, and to introduce a N39D mutation.
(§2) The rate of phosphate (Pi) uptake into HEK293 cells was measured using a modification of the method described by Mohrmann et al. (Mohrmann, I., Mohrmann, M., Biber, J., and Murer, H. (1986) Am. J. Phys. 250(3 Pt 1):G323-30.) Transfected HEK293 cells were treated with a pharmacological agent to minimize endogenous PiT-mediated phosphate transport activity, such that the only remaining sodium-dependent phosphate transport activity is that which was bestowed by introduction of the NaP2b genes.
(§3) Cells were seeded into 96-well plates at 25,000 cells/well and cultured overnight. Lipofectamine 2000 (Invitrogen) was used to introduce the NaP2b cDNA, and the cells were allowed to approach confluence during a second overnight incubation. […] Cells were then overlayed with either choline uptake buffer or sodium uptake buffer (14 mM Tris, 137 mM sodium chloride, 5.4 mM KCl, 2.8 mM CaCl2, 1.2 mM MgSO4, 100 uM KH2PO4, PiT-silencing agent, 1 mg/mL Bovine Serum Albumin, pH 7.4) containing 6-9 uCi/mL ^33P orthophosphoric acid (Perkin Elmer) and test compound. Each compound was tested at twelve concentrations ranging from 0.1 nM to 30 uM. Assays were run in duplicate.
(§4) After incubation for 3-30 minutes at room temperature, assay mixtures were removed, and the cells were washed twice with ice cold stop solution (137 mM sodium chloride, 14 mM Tris, pH 7.4). Cells were lysed by addition of 20 μL 0.1% Tween 80 followed by 100 μL scintillation fluid, and counted using a TopCount (Perkin Elmer).
(§5) pIC50 (the negative log of the IC50) values of the test compounds were calculated using GraphPad Prism.

NaPi2b = biological target: T2, NaPi2b (Rattus norvegicus, UniProt Q9JJ09); experiment: Competition with phosphate: Pi transport assay repeated at 2.1 vs 0.1 mM phosphate; type: cell-based; details: potency for inhibition of NaPi2b at 2.1 vs 0.1 mM phosphate
T2 construct: host or cells: HEK293
T2 sequence (Q9JJ09 1-695): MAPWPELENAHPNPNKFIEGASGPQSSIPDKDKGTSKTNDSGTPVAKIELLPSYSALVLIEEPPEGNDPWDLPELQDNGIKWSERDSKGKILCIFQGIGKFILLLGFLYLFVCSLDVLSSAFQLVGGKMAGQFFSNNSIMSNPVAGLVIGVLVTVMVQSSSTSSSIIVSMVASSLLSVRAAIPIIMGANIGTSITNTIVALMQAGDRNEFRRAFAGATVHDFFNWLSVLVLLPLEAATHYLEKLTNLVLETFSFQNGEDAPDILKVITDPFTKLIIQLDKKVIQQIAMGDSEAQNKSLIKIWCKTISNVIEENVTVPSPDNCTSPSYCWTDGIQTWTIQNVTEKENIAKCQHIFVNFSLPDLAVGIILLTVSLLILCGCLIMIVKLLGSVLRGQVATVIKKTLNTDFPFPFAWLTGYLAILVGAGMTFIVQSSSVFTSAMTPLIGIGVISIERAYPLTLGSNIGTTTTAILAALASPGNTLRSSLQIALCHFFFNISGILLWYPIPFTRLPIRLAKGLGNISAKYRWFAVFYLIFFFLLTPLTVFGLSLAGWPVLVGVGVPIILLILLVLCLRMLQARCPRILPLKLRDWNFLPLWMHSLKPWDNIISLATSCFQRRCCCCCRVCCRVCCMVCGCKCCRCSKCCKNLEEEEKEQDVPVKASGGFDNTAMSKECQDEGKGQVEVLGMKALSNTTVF
Procedure: To ascertain if an inhibitor was competitive for binding with phosphate, the procedure was repeated, but raising the concentration of the substrate in the assay mixture from 0.1 to 2.1 mM phosphate.

rat NaP2b (SLC34A2) = biological target: T3, rat NaP2b (SLC34A2) (Rattus norvegicus, UniProt Q9JJ09); experiment: NaP2b-mediated Pi transport (33P uptake) in transfected HEK293 cells, rat transporter; type: cell-based; details: HEK293 cells transfected with rat NaP2b, 33P phosphate uptake, 100 uM KH2PO4; read-out: pIC50 range for rat Nap2b (converted)
T3 construct: host or cells: HEK293
T3 sequence (Q9JJ09 1-695): T2 sequence (Q9JJ09 1-695)
Procedure: as §1, §2, §3, §4, §5

[1] = Stability in simulated gastric and intestinal fluid; type: in vitro ADME; details: incubation 6 hr, 1-20 μM
Procedure: Test compounds were incubated at 1-20 μM in simulated gastric fluid (SGF; standard USP solution with 3 mg/mL pepsin) or simulated intestinal fluid (SIF; standard USP solution with 3 mg/mL pancreatin) for 3 hr or 6 hr. HPLC-UV or HPLC-MS were used to determine test compound levels using peak area %. Results (Table 5) were reported as the percentage of test compound remaining after incubation in a given condition relative to test compound present at t=0 in the same condition.

[2] = Fecal recovery of orally administered compounds; type: in vivo; details: rat, oral gavage, feces collected until 48 hr after dosing, same animals as Example 22
Procedure: Quantitative determination of test compound level in feces after oral gavage was performed using the same set of animals used to determine test compound concentration in plasma (Example 22). The animals were kept in metabolic cages and feces were collected from the time of dosing until 48 hr after dosing. Upon collection, feces was dried by lyophilization and ground to a visually homogenous powder. Duplicate samples of ground feces from each individual animal were weighed out and extracted using organic solvent. Extracted samples were then diluted into mobile phase and test compound levels were quantitatively determined by LC-MS/MS analysis as described in “Example 22” except that the standard curve was prepared in a feces matrix. Extraction conditions were not optimized for individual compounds, and thus may represent a minimal level of recovery.

| IC50 (rat NaP2b (SLC34A2)) | Structure (SMILES) | other results |
| --- | --- | --- |
| < 1 µM | CN(CCN1CCOCC1)C(=O)c1cccc(C(=O)Nc2ccc(N3CCCCC3)cc2C(=O)Nc2cnc(-c3cccc(C(F)(F)F)c3)nc2)c1 [Example 10, N1-Methyl-N1-(2-morpholinoethyl)-N3-(4-(piperidin-1-yl)-2-((2-(3-(trifluoromethyl)phenyl)pyrimidin-5-yl)carbamoyl)phenyl)isophthalamide] | IC50 (human NaP2b (SLC34A2)): < 1 µM; Competitive with respect to Pi? (NaPi2b): No |
| 10 to 31.6 µM | CCN(CC)CCN(C)Cc1cccc(C(=O)Nc2ccc(N3CCCCC3)cc2C(=O)Nc2ncc(-c3cccc(C(F)(F)F)c3)cn2)c1 [Example 9, 2-(3-(((2-(Diethylamino)ethyl)(methyl)amino)methyl)benzamido)-5-(piperidin-1-yl)-N-(5-(3-(trifluoromethyl)phenyl)pyrimidin-2-yl)benzamide] | – |
| 1 to 7.94 µM | CN(CCOCCOCCOCCC(=O)O)C(=O)c1cccc(C(=O)Nc2ccc(N3CCCCC3)cc2C(=O)Nc2cnc(-c3ccccc3)nc2)c1 [Example 15, 2-Methyl-1-oxo-1-(3-((2-((2-phenylpyrimidin-5-yl)carbamoyl)-4-(piperidin-1-yl)phenyl)carbamoyl)phenyl)-5,8,11-trioxa-2-azatetradecan-14-oic acid] | % remaining, SGF ([1]; simulated gastric fluid with 3 mg/mL pepsin): 97%; % remaining, SIF ([1]; simulated intestinal fluid with 3 mg/mL pancreatin): 98% |
| 1 to 7.94 µM | Cc1ccc(-c2cnc(NC(=O)c3cc(N4CCCCC4)ccc3NC(=O)c3cccc(CSCCC(=O)O)c3)nc2)cc1C [Example 13, 3-(3-(2-(5-(3,4-dimethylphenyl)pyrimidin-2-ylcarbamoyl)-4-(piperidin-1-yl)phenylcarbamoyl)benzylthio)propanoic acid] | – |
| – | O=C(O)P(=O)(O)O [PFA, reference compound] | Competitive with respect to Pi? (NaPi2b): Yes |
| 1 to 7.94 µM | O=C(O)c1cccc(SCc2cccc(C(=O)Nc3ccc(N4CCCCC4)cc3C(=O)Nc3cnc(-c4ccccc4)nc3)c2)c1 [Example 3, 3-((3-((2-((2-Phenylpyrimidin-5-yl)carbamoyl)-4-(piperidin-1-yl)phenyl)carbamoyl)benzyl)thio)benzoic acid] | – |
| 1 to 7.94 µM | Cc1ccc(-c2cnc(NC(=O)c3cc(N4CCCCC4)ccc3NC(=O)c3cccc(CSCCC(=O)O)c3)cn2)cc1C [Example 1, 3-((3-((2-((5-(3,4-Dimethylphenyl)pyrazin-2-yl)carbamoyl)-4-(piperidin-1-yl)phenyl)carbamoyl)benzyl)thio)propanoic acid] | – |
| 10 to 31.6 µM | Cc1ccc(-c2cnc(NC(=O)c3cc(N4CCCCC4)ccc3NC(=O)c3cccc(C(=O)NCCOCCO)c3)nc2)cc1C [Example 16, N1-(2-((5-(3,4-Dimethylphenyl)pyrimidin-2-yl)carbamoyl)-4-(piperidin-1-yl)phenyl)-N3-(2-(2-hydroxyethoxy)ethyl)isophthalamide] | – |
| 10 to 31.6 µM | O=C(NCCOCCO)c1cccc(C(=O)Nc2ccc(N3CCCCC3)cc2C(=O)Nc2cnc(-c3cccc(C(F)(F)F)c3)cn2)c1 [Example 6, N1-(2-(2-Hydroxyethoxy)ethyl)-N3-(4-(piperidin-1-yl)-2-((5-(3-(trifluoromethyl)phenyl)pyrazin-2-yl)carbamoyl)phenyl)isophthalamide] | – |
| 1 to 7.94 µM | O=C(O)CCOCCOCCOCCNC(=O)Cc1cccc(SCc2cccc(C(=O)Nc3ccc(N4CCCCC4)cc3C(=O)Nc3ncc(-c4ccccc4)cn3)c2)c1 [Example 17, 2-Oxo-1-(3-((3-((2-((5-phenylpyrimidin-2-yl)carbamoyl)-4-(piperidin-1-yl)phenyl)carbamoyl)benzyl)thio)phenyl)-6,9,12-trioxa-3-azapentadecan-15-oic acid] | IC50 (human NaP2b (SLC34A2)): 1 to 7.94 µM |
| 10 to 31.6 µM | O=C(NCCOCCO)c1cccc(C(=O)Nc2ccc(N3CCCCC3)cc2C(=O)Nc2ncc(-c3cccc(C(F)(F)F)c3)cn2)c1 [Example 8] | – |
| 1 to 7.94 µM | CCN(CC)CCN(C)Cc1cccc(C(=O)Nc2ccc(N3CCCCC3)cc2C(=O)Nc2ncc(-c3ccc(C)c(C)c3)cn2)c1 [Example 7, 2-(3-(((2-(Diethylamino)ethyl)(methyl)amino)methyl)benzamido)-N-(5-(3,4-dimethylphenyl)pyrimidin-2-yl)-5-(piperidin-1-yl)benzamide] | – |
| 10 to 31.6 µM | Cc1ccc(-c2cnc(NC(=O)c3cc(N4CCCCC4)ccc3NC(=O)c3cccc(C(=O)NCCOCCO)c3)cn2)cc1C [Example 5, N1-(2-((5-(3,4-Dimethylphenyl)pyrazin-2-yl)carbamoyl)-4-(piperidin-1-yl)phenyl)-N3-(2-(2-hydroxyethoxy)ethyl)isophthalamide] | – |
| < 1 µM | CN(CCN1CCOCC1)C(=O)c1cccc(C(=O)Nc2ccc(N3CCCCC3)cc2C(=O)Nc2cnc(-c3ccccc3)nc2)c1 [Example 11, N1-Methyl-N1-(2-morpholinoethyl)-N3-(2-((2-phenylpyrimidin-5-yl)carbamoyl)-4-(piperidin-1-yl)phenyl)isophthalamide] | IC50 (human NaP2b (SLC34A2)): < 1 µM; Competitive with respect to Pi? (NaPi2b): No; % recovered in feces [2]: 26% |
| 10 to 31.6 µM | O=C(O)CCSCc1cccc(C(=O)Nc2ccc(N3CCCCC3)cc2C(=O)Nc2ncc(-c3cccc(C(F)(F)F)c3)cn2)c1 [Example 14, 3-((3-((4-(Piperidin-1-yl)-2-((5-(3-(trifluoromethyl)phenyl)pyrimidin-2-yl)carbamoyl)phenyl)carbamoyl)benzyl)thio)propanoic acid] | – |
